Laboratory results reported in patent US12209075B2, “Pyridine-sulfonamide derivatives as sodium channel inhibitors” (GENENTECH, INC., priority 2018, dated 2025).
Where a name gives a salt, the structure may show the parent alone.

What was measured:
[1] = molecular target: T1, hNav1.7 (Homo sapiens (Human), UniProt Q15858); assay: Patch voltage clamp electrophysiology assay (EP), Syncropatch 384PE, CHO cells expressing Nav1.7; assay type: cell-based; details: holding potential −50 mV, 7.5 min compound incubation; read-out: EP_SP hNav1.7 EVO IC50
Description: Example 64c. Electrophysiological Assay (EP) (In Vitro Assay)
Patch voltage clamp electrophysiology allows for the direct measurement and quantification of block of voltage-gated sodium channels (NaV's), and allows the determination of the time- and voltage-dependence of block which has been interpreted as differential binding to the resting, open, and inactivated states of the sodium channel (Hille, B., Journal of General Physiology (1977), 69: 497-515).
The following voltage clamp electrophysiology studies are performed on representative compounds using cells heterologously expressing Nav1.7 or Nav1.5 channels. cDNAs for Nav1.7 (NM 002977) and Nav1.5 (AC137587) are stably expressed in Chinese Hamstr Ovary (CHO) cells and CHL (Chinese Hamster Lung) cells respectively. Sodium currents are measured in the whole-cell configuration using Syncropatch 384PE ([…], Germany). 1NPC®-384 chips with custom medium resistance and single hole mode are used. Internal solution consists of (in mM): […], 10CsCl, 20EGTA, and 10Hepes (pH adjusted to 7.2); and external solution contains (in mM): 60NMDG, 80NaCl, 4 KCl, 1MgCl2, 2CaCl2, 2D-Glucose monohydrate, 10Hepes (pH adjusted to 7.4 with NaOH).
After system flushing, testing compounds are dissolved in external solution containing 0.1% Pluronic F-127. The chip is moved into the measuring head and the instrument primes the chip with external and internal solutions. 10 μl cells are added to the chip from a cell hotel, and a negative pressure of −50 mBar is applied to form a seal. Following treatment with seal enhancer solution and wash-off with external solution, negative pressure of −250 mbar is applied for 1 second to achieve the whole-cell configuration, followed by three washing steps in external solution. 20 μl of compounds is added to 40 μl in each well (1:3 dilution of compounds), and after mixing, 20 μl is removed so the volume is retained at 40 ul. After approximately 13 minutes recordings, 20 μl/well of 2 uM TTX, or 333 uM Tetracaine (for Nav1.5) is added to achieve full block.
For voltage protocol, an holding potential of −50 mV is applied during the whole experiment. A depolarizing step is applied to −10 mV for 10 ms, followed by a hyperpolarization step to −150 mV for 20 ms to allow channel recovery from inactivation. A second depolarizing step is applied from −150 mV to −10 mV for 10 ms, where currents are measured to derive blocking effects of compounds. Inhibition is determined based on 7.5 min of compound incubation.
Target sequence in this assay (Q15858 other isoform, or with tags, fused parts or gaps): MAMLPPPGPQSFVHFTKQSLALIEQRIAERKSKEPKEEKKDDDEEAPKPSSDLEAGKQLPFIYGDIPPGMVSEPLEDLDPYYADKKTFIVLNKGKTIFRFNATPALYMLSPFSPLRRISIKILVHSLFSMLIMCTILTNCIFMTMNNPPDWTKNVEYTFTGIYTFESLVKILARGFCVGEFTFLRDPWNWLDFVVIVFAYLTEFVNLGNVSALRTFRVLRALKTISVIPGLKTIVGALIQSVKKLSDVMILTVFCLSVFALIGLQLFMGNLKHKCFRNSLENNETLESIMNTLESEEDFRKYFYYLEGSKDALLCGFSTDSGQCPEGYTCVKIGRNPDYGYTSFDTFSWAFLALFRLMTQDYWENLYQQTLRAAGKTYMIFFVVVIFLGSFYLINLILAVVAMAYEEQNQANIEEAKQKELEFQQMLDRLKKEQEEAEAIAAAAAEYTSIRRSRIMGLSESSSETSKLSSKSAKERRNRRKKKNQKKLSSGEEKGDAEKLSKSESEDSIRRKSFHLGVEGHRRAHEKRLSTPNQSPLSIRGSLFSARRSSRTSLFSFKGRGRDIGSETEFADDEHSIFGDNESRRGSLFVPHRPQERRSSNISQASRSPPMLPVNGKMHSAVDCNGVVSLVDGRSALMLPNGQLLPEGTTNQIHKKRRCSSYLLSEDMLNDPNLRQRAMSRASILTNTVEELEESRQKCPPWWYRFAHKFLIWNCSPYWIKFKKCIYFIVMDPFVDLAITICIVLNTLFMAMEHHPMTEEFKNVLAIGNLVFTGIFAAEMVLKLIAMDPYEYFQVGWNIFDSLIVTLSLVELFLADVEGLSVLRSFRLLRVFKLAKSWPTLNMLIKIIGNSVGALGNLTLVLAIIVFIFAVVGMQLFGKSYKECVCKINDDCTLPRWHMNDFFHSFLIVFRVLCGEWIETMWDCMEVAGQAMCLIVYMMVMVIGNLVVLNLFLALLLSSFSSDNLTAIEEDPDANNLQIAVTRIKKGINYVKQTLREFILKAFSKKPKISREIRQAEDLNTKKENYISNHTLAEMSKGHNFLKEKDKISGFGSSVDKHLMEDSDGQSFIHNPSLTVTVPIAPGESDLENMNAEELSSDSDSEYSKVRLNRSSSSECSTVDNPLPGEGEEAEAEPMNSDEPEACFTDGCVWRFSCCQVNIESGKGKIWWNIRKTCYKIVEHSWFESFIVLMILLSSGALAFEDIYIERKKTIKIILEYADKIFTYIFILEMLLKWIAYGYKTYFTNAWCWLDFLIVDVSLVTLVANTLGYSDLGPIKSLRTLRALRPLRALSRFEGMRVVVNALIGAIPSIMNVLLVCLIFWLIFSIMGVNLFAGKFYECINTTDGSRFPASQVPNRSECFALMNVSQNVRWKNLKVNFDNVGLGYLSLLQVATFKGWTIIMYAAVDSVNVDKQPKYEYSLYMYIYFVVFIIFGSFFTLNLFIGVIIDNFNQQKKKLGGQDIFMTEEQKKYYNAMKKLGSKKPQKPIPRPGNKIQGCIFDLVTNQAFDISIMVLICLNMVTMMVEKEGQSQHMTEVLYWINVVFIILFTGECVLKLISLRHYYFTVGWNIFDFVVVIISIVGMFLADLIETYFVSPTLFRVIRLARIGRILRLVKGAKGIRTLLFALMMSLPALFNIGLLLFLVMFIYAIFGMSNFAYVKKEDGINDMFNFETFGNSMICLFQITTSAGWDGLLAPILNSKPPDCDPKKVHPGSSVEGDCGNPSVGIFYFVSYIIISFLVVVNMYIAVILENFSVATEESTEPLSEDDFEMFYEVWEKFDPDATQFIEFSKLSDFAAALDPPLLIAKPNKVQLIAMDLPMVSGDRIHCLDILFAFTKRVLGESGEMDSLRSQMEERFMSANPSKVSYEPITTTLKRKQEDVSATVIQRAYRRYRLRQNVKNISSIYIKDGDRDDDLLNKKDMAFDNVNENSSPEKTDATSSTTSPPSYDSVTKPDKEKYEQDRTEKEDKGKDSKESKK

[2] = molecular target: T1, hNav1.7; assay: Tritiated compound binding to membranes from cells expressing hNav1.7 and the β1 subunit (Nav1.7 LBA EVO); details: competitive binding vs [3H]compound, membranes with hNav1.7 and β1 subunit
Experimental: Example 64a. Tritiated Compound Binding to Membranes Isolated from Cells that Heterologously Express hNav1.7 and the β1 Subunit
Preparation of membranes containing recombinantly expressed sodium channels: Frozen recombinant cell pellets are thawed on ice and diluted to 4 times the cell pellet weight with ice cold 50 mM Tris HCl, pH 7.4 buffer. The cell suspensions are homogenized on ice using a motorized glass dounce homogeniser. Homogenates are further diluted 8.4 times with ice cold 50 mM Tris HCl, pH 7.4 buffer and then centrifuged at 200×g at 4° C. for 15 minutes. The supernatants are collected and centrifuged at 10000×g at 4° C. for 50 min. The pellets are then re-suspended in 100 mM NaCl, 20 mM Tris HCl, pH 7.4 buffer containing 1% v/v protease inhibitors (Calbiochem) and re-homogenized on ice. The homogenized membranes are then processed through a syringe equipped with a 26 gauge needle. Protein concentrations arer determined by Bradford Assay and the membranes are stored at −80° C.
Radioligand Binding Studies: Saturation experiments. A competitive NaV1.7 inhibitor having a methyl group is tritiated. Three tritiums are incorporated in place of methyl hydrogens to generate [^3H]compound. Binding of this radioligand is performed in 5 mL borosilicate glass test tubes at room temperature. Binding is initiated by adding membranes to increasing concentrations of [^3H]compound in 100 mM NaCl, 20 mM Tris HCl, pH 7.4 buffer containing 0.01% w/v bovine serum albumin (BSA) for 18 h. Non-specific binding is determined in the presence of 1 μM unlabeled compound. After 18 h, the reactants are filtered through GF/C glass fiber filters presoaked in 0.5% w/v polyethylene imine. Filters are washed with 15 mL ice cold 100 mM NaCl, 20 mM Tris HCl, pH7.4 buffer containing 0.25% BSA to separate bound from free ligand. [^3H]compound bound to filters is quantified by liquid scintillation counting.
Competitive binding experiments: Binding reactions are performed in 96-well polypropylene plates at room temperature for 18 h. In 360 μL, membranes are incubated with 100 pM [^3H]compound and increasing concentrations of Test Compound. Non-specific binding is defined in the presence of 1 μM unlabeled compound. Reactions are transferred and filtered through 96-well glass fiber/C filter plates presoaked with 0.5% polyethylene imine. The filtered reactions are washed 5 times with 200 μL ice cold buffer containing 0.25% BSA. Bound radioactivity is determined by liquid scintillation counting.
Data Analysis: For saturation experiments, non-specific binding is subtracted from total binding to provide specific binding and these values are recalculated in terms of pmol ligand bound per mg protein. Saturation curves are constructed and dissociation constants are calculated using the single site ligand binding model: Beq=(Bmax*X)/(X+Kd), where Beq is the amount of ligand bound at equilibrium, Bmax is the maximum receptor density, Kd is the dissociation constant for the ligand, and X is the free ligand concentration. For competition studies percent inhibition is determined and IC50 values are calculated using a 4 parameter logistic model (% inhibition=(A+((B−A)/(1+((x/C)^D)))) using XLfit, where A and B are the maximal and minimum inhibition respectively, C is the IC50 concentration and D is the (Hill) slope.
Example 64b. Tritiated Compound Binding to Membranes Isolated from Cells that Heterologous Express hNav1.7 and the β1 Subunit
Preparation of membranes containing recombinantly expressed sodium channels: Following the procedure described in 31a, and making modifications as required to: centrifuge supernatants at 100000×g instead of 10000×g; re-suspend pellets in a buffer containing 0.01% BSA in addition to 100 mM NaCl, 20 mM Tris HCl, pH 7.4 buffer, and 1% v/v […]; and storing membranes at −80° C. in single use aliquots instead of pooled. […]
Target sequence in this assay (Q15858 whole entry, looked up): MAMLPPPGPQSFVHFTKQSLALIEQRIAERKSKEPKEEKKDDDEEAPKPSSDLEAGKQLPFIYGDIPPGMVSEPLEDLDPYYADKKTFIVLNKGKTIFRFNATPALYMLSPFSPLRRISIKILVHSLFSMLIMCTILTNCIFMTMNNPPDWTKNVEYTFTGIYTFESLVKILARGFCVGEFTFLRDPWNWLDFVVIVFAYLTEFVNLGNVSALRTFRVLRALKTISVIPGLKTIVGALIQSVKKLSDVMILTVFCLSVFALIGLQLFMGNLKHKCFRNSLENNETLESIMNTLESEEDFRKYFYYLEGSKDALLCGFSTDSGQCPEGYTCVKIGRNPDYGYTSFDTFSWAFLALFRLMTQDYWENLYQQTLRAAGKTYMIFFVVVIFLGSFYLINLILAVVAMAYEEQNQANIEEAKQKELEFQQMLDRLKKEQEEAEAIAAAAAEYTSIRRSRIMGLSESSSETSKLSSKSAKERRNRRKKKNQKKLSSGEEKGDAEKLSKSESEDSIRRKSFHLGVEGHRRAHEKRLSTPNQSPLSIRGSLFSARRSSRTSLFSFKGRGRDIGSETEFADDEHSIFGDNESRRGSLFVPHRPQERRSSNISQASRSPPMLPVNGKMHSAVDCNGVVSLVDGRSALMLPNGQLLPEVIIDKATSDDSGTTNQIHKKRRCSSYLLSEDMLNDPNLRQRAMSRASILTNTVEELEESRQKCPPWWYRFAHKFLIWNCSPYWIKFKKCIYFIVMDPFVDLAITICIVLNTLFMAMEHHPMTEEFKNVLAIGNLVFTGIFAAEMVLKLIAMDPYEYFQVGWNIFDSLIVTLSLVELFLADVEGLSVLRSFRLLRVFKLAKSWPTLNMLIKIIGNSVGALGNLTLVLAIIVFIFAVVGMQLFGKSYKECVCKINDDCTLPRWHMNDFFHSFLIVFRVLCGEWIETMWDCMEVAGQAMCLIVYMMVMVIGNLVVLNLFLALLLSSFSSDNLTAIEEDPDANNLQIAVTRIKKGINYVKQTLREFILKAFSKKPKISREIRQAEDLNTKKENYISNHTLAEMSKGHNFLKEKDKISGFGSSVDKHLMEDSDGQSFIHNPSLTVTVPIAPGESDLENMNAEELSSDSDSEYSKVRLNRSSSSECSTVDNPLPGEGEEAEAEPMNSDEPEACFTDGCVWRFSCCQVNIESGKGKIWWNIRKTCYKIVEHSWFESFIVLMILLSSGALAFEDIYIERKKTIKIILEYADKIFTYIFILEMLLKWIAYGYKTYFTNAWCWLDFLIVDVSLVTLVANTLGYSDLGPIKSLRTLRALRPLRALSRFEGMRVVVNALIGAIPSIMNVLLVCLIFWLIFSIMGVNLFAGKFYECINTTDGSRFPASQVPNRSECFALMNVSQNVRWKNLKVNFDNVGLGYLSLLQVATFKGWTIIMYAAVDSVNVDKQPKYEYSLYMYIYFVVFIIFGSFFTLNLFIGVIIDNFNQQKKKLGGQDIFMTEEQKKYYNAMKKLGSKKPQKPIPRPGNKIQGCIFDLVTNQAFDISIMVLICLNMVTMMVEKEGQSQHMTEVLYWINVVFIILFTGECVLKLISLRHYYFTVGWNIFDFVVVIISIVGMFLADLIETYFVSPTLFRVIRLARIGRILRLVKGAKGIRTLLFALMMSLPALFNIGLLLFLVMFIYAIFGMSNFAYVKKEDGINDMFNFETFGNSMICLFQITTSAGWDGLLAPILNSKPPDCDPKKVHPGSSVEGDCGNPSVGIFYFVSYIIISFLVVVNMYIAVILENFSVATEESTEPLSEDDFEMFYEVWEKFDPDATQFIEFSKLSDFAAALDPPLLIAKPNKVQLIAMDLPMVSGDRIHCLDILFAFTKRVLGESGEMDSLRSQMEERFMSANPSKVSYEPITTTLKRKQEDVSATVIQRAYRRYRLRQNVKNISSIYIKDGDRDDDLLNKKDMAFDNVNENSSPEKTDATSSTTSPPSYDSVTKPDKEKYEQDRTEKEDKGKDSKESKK
Target sequence in this assay (Q07699 whole entry partner, looked up): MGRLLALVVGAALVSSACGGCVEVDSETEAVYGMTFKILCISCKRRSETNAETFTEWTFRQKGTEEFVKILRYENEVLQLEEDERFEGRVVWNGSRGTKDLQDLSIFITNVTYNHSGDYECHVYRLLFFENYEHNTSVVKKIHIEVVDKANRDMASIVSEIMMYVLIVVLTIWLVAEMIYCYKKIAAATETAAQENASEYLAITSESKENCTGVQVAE

“6-(((1S,2S,4S)-2-(dimethylamino)-4-(6-(trifluoromethyl)pyridin-2-yl)cyclohexyl)oxy)-2-methyl-N-(pyrimidin-4-yl)pyridine-3-sulfonamide [Example 51]” was tested, and the IC50 [1] was 4.59 nM and the IC50 [2] was 0.985 nM.
Work on `Cc1nc(O[C@H]2CC[C@H](c3ccc(Cl)c(Cl)c3)C[C@@H]2N(C)C)ccc1S(=O)(=O)Nc1ccncn1` [Example 37, 6-(((1S,2S,4S)-4-(3,4-dichlorophenyl)-2-(dimethylamino)cyclohexyl)oxy)-2-methyl-N-(pyrimidin-4-yl)pyridine-3-sulfonamide] yielded an IC50 [1] of 0.301 nM and an IC50 [2] of 1.36 nM.
With `CN(C)[C@H]1C[C@@H](c2cccc(Cl)c2)CC[C@@H]1Oc1ncc(S(=O)(=O)Nc2ccncn2)cc1Cl` [Example 27, 5-Chloro-6-(((1S,2S,4S)-4-(3-chlorophenyl)-2-(dimethylamino)cyclohexyl)oxy)-N-(pyrimidin-4-yl)pyridine-3-sulfonamide] the IC50 [1] was 0.574 nM and the IC50 [2] was 7.12 nM.
For `Cc1nc(O[C@H]2CC[C@H](c3cccc(C(F)(F)F)c3)C[C@@H]2N2CCOCC2)ccc1S(=O)(=O)Nc1ccncn1` [Example 55, 2-Methyl-6-(((1S,2S,4S)-2-morpholino-4-(3-(trifluoromethyl)phenyl)cyclohexyl)oxy)-N-(pyrimidin-4-yl)pyridine-3-sulfonamide], the IC50 [2] was 1.72 nM.
For `Cc1nc(O[C@H]2CC[C@H](c3cccc(CC(F)(F)F)c3)C[C@@H]2N(C)C)ccc1S(=O)(=O)Nc1ccncn1` [Example 59, 6-(((1S,2S,4S)-2-(dimethylamino)-4-(3-(2,2,2-trifluoroethyl)phenyl)cyclohexyl)oxy)-2-methyl-N-(pyrimidin-4-yl)pyridine-3-sulfonamide], the IC50 [2] was 1.59 nM.
In the case of `CCN(C)[C@H]1C[C@@H](c2cccc(C(F)(F)F)c2)CC[C@@H]1Oc1ccc(S(=O)(=O)Nc2ccncn2)c(C)n1` [Example 48, 6-(((1S,2S,4S)-2-(Ethyl(methyl)amino)-4-(3-(trifluoromethyl)phenyl)cyclohexyl)oxy)-2-methyl-N-(pyrimidin-4-yl)pyridine-3-sulfonamide], the IC50 [2] is reported as 0.75 nM.
Work on `O=S(=O)(Nc1ccncn1)c1ccc(O[C@H]2CC[C@H](c3cccc(C(F)(F)F)c3)C[C@@H]2N2CCCCC2)nc1` [Example 26, 6-(((1S,2S,4S)-2-(piperidin-1-yl)-4-(3-(trifluoromethyl)phenyl)cyclohexyl)oxy)-N-(pyrimidin-4-yl)pyridine-3-sulfonamide] yielded an IC50 [2] of 4.88 nM.
Work on `Cc1nc(O[C@H]2CC[C@H](c3cccc(OC(F)F)c3)C[C@@H]2N(C)C)ccc1S(=O)(=O)Nc1ccncn1` [Example 52, 6-(((1S,2S,4S)-4-(3-(difluoromethoxy)phenyl)-2-(dimethylamino)cyclohexyl)oxy)-2-methyl-N-(pyrimidin-4-yl)pyridine-3-sulfonamide] yielded an IC50 [2] of 0.615 nM.
Work on `O=S(=O)(Nc1ccncn1)c1cnc(O[C@H]2CC[C@H](c3cccc(C(F)(F)F)c3)C[C@@H]2N2CCCCC2)c(Cl)c1` [Example 19, 5-chloro-6-(((1S,2S,4S)-2-(piperidin-1-yl)-4-(3-(trifluoromethyl)phenyl)cyclohexyl)oxy)-N-(pyrimidin-4-yl)pyridine-3-sulfonamide] yielded an IC50 [2] of 0.493 nM.
Work on `Cc1nc(O[C@H]2CC[C@H](c3cc(Cl)ccc3Cl)C[C@@H]2N(C)C)ccc1S(=O)(=O)Nc1ccncn1` [Example 39, 6-(((1S,2S,4S)-4-(2,5-dichlorophenyl)-2-(dimethylamino)cyclohexyl)oxy)-2-methyl-N-(pyrimidin-4-yl)pyridine-3-sulfonamide formate] yielded an IC50 [2] of 0.935 nM.
In the case of `CN(C)[C@H]1C[C@@H](c2cccc(OC(F)(F)F)c2)CC[C@@H]1Oc1ccc(S(=O)(=O)Nc2ccncn2)cn1` [Example 25, 6-(((1S,2S,4S)-2-(dimethylamino)-4-(3-(trifluoromethoxy)phenyl)cyclohexyl)oxy)-N-(pyrimidin-4-yl)pyridine-3-sulfonamide formate], the IC50 [2] is reported as 44.8 nM.
With `O=S(=O)(Nc1ccncn1)c1ccc(N[C@H]2CC[C@H](c3cccc(OC(F)(F)F)c3)C[C@@H]2N2CCCC2)nc1` [Example 9, N-(pyrimidin-4-yl)-6-(((1S,2S,4S)-2-(pyrrolidin-1-yl)-4-(3-(trifluoromethoxy)phenyl)cyclohexyl)-amino)pyridine-3-sulfonamide formate] the IC50 [1] was 0.664 nM and the IC50 [2] was 4.11 nM.
`Cc1nc(O[C@H]2CC[C@H](c3cc(Cl)cc(Cl)c3)C[C@@H]2N(C)C)ccc1S(=O)(=O)Nc1ccncn1` [Example 50, 6-(((1S,2S,4S)-4-(3,5-dichlorophenyl)-2-(dimethylamino)cyclohexyl)oxy)-2-methyl-N-(pyrimidin-4-yl)pyridine-3-sulfonamide] gave an IC50 [1] of 0.222 nM and an IC50 [2] of 1.12 nM.
`Cc1nc(O[C@H]2CC[C@H](c3cccc(C(F)(F)F)c3)C[C@@H]2N(C)C2CCC2)ccc1S(=O)(=O)Nc1ccncn1` [Example 35, 6-(((1S,2S,4S)-2-(Cyclobutyl(methyl)amino)-4-(3-(trifluoromethyl)phenyl)cyclohexyl)oxy)-2-methyl-N-(pyrimidin-4-yl)pyridine-3-sulfonamide] was tested, and the IC50 [2] was 1.12 nM.
With `CN(C)[C@H]1C[C@@H](c2cccc(C(F)(F)F)c2)CC[C@@H]1Oc1ncc(S(=O)(=O)Nc2ccncn2)cc1Cl` [Example 3, 5-Chloro-6-(((1S,2S,4S)-2-(dimethylamino)-4-(3-(trifluoromethyl)phenyl)cyclohexyl)oxy)-N-(pyrimidin-4-yl)pyridine-3-sulfonamide] the IC50 [2] was 40 nM.
Molecule `O=S(=O)(Nc1ccncn1)c1ccc(N[C@H]2CC[C@H](c3cccc(C(F)(F)F)c3)C[C@@H]2N2CCCC2)nc1` [Example 16, N-(pyrimidin-4-yl)-6-(((1S,2S,4S)-2-(pyrrolidin-1-yl)-4-(3-(trifluoromethyl)phenyl)cyclohexyl)-amino)pyridine-3-sulfonamide formate] has an IC50 [2] of 25.1 nM.
